Measured values published in patent US12180187B2, “1-phenyl-5-azinylpyrazolyl-3-oxyalkyl acids and their use for controlling unwanted plant growth” (BAYER AKTIENGESELLSCHAFT, priority 2019, dated 2024).

Tests used:
[1] = tested on: POLCO; assay: Pre-emergence action at 320 g/ha against POLCO; assay type: in vivo, Fallopia convolvulus (Polygonum convolvulus); settings: visual scoring after about 3 weeks vs untreated controls
Method in brief: (§1)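 Effect rated visually (% vs untreated control) about 3 weeks after pre-emergence spraying of WP/EC formulation onto soil; spray carried 0.5% additive at 600 l/ha water.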

[2] = tested on: ECHGC; assay: Pre-emergence action at 320 g/ha against ECHGC; assay type: in vivo, Echinochloa crus-galli; settings: visual scoring after about 3 weeks vs untreated controls
Method in brief: as §1

[3] = tested on: LOLRI; assay: Pre-emergence action at 320 g/ha against LOLRI; assay type: in vivo, Lolium rigidum; settings: visual scoring after about 3 weeks vs untreated controls
Method in brief: as §1

[4] = tested on: AVEFA; assay: Pre-emergence action at 320 g/ha against AVEFA; assay type: in vivo; settings: visual scoring after about 3 weeks vs untreated controls
Method in brief: as §1

[5] = tested on: MATIN; assay: Pre-emergence action at 320 g/ha against MATIN; assay type: in vivo, Tripleurospermum inodorum (Matricaria inodora); settings: visual scoring after about 3 weeks vs untreated controls
Method in brief: as §1

[6] = tested on: PHBPU; assay: Pre-emergence action at 320 g/ha against PHBPU; assay type: in vivo; settings: visual scoring after about 3 weeks vs untreated controls
Source text: b) Seeds of monocotyledonous and dicotyledonous weed plants and crop plants are placed in plastic or organic planting pots and covered with soil. The compounds of the invention, formulated in the form of wettable powders (WP) or as emulsion concentrates (EC), are then applied onto the surface of the covering soil as aqueous suspension or emulsion with addition of 0.5% additive at a water application rate of 600 l/ha (converted). After the treatment, the pots are placed in a greenhouse and kept under good growth conditions for the trial plants. After about 3 weeks, the effect of the preparations is scored visually in comparison with untreated controls as percentages. For example, 100% activity=the plants have died, 0% activity=like control plants. Tables 13 to 26 below show the effects of selected compounds of the general formula (I) on various harmful plants and at an application rate corresponding to 320 g/ha, which were obtained by the experimental procedure mentioned above.

[7] = tested on: VIOTR; assay: Pre-emergence action at 320 g/ha against VIOTR; assay type: in vivo, Viola tricolor; settings: dosage 320 g/ha
Method in brief: as §1

[8] = tested on: ALOMY; assay: Pre-emergence action at 320 g/ha against ALOMY; assay type: in vivo, Alopecurus myosuroides; settings: scored visually after about 3 weeks vs untreated controls (100% = plants have died)
Method in brief: as §1

[9] = tested on: AMARE; assay: Pre-emergence action at 320 g/ha against AMARE; assay type: in vivo, Amaranthus retroflexus; settings: visual scoring after about 3 weeks vs untreated controls
Method in brief: as §1

[10] = tested on: VERPE; assay: Pre-emergence action at 320 g/ha against VERPE; assay type: in vivo, Veronica persica; settings: visual scoring after about 3 weeks vs untreated controls
Method in brief: as §1

[11] = tested on: SETVI; assay: Pre-emergence action at 320 g/ha against SETVI; assay type: in vivo, Setaria viridis; settings: visual scoring after about 3 weeks vs untreated controls
Method in brief: as §1

[12] = tested on: VIOTR; assay: Post-emergence action at 320 g/ha against VIOTR; assay type: in vivo, Viola tricolor; settings: Viola tricolor, 504 h, visual rating about 3 weeks after treatment vs untreated controls
Source text: (§2) Accordingly, the compounds of the invention have good herbicidal action against a broad spectrum of weed grasses and broad-leaved weeds and are therefore suitable for controlling unwanted vegetation by the post-emergence method. • b) Seeds of monocotyledonous and dicotyledonous weeds and crop plants are placed in sandy loam in plastic or organic planting pots, covered with soil and cultivated in a greenhouse under controlled growth conditions. 2 to 3 weeks after sowing, the test plants are treated at the one-leaf stage. The compounds of the invention, formulated in the form of wettable powders (WP) or as emulsion concentrates (EC), are then sprayed onto the green parts of the plants as aqueous suspension or emulsion with addition of 0.5% additive at a water application rate of 600 l/ha (converted). After the test plants have been kept in the greenhouse under optimum growth conditions for about 3 weeks, the activity of the preparations is rated visually in comparison to untreated controls. For example, 100% activity=the plants have died, 0% activity=like control plants. Tables 39 to 49 below show the effects of selected compounds of the general formula (I) according to Tables 1 and 2 on various harmful plants and at an application rate corresponding to 320 g/ha, which were obtained by the experimental procedure mentioned above.

[13] = tested on: ECHCG; assay: Post-emergence action at 320 g/ha against ECHCG; assay type: in vivo, Echinochloa crus-galli; settings: dosage 320 g/ha, visual rating about 3 weeks after treatment vs untreated controls (100% = plants died)
Source text: as §2

[14] = tested on: DIGSA; assay: Post-emergence action at 320 g/ha against DIGSA; assay type: in vivo, Digitaria sanguinalis; settings: Digitaria sanguinalis, 504 h, dosage 320 g/ha, visual rating about 3 weeks after treatment vs untreated controls (100% = plants died)
Source text: as §2

[15] = tested on: POLCO; assay: Post-emergence action at 320 g/ha against POLCO; assay type: in vivo, Fallopia convolvulus (Polygonum convolvulus); settings: Fallopia convolvulus, 504 h, visual rating about 3 weeks after treatment vs untreated controls
Source text: as §2

[16] = tested on: SETVI; assay: Post-emergence action at 320 g/ha against SETVI; assay type: in vivo, Setaria viridis; settings: visual rating about 3 weeks after treatment vs untreated controls
Source text: as §2

[17] = tested on: DIGSA; assay: Pre-emergence action at 320 g/ha against DIGSA; assay type: in vivo, Digitaria sanguinalis; settings: Digitaria sanguinalis, 504 h, visual scoring after about 3 weeks vs untreated controls
Method in brief: as §1

[18] = tested on: ALOMY; assay: Post-emergence action against ALOMY, 320 g/ha; assay type: in vivo, Alopecurus myosuroides; settings: dosage 320 g/ha, visual rating about 3 weeks after treatment vs untreated controls (100% = plants died)
Source text: as §2

[19] = tested on: AMARE; assay: Post-emergence action at 320 g/ha against AMARE; assay type: in vivo, Amaranthus retroflexus; settings: Amaranthus retroflexus, 504 h, visual rating about 3 weeks after treatment vs untreated controls
Source text: as §2

[20] = tested on: AVEFA; assay: Post-emergence action at 320 g/ha against AVEFA; assay type: in vivo; settings: Avena fatua, 504 h, visual rating about 3 weeks after treatment vs untreated controls
Source text: as §2

CCOC(=O)CN(C)S(=O)(=O)NC(=O)COc1nn(-c2ccccc2F)c(-c2cncc(F)c2)c1Br [Example X-041]
Pre-emergence action against POLCO in % [1]: 90% | Pre-emergence action against ECHGC in % [2]: 80% | Pre-emergence action against LOLRI in % [3]: 90% | Pre-emergence action against AVEFA in % [4]: 80% | Pre-emergence action against MATIN in % [5]: 90% | Pre-emergence action against PHBPU in % [6]: 90% | Pre-emergence action against VIOTR in % [7]: 100% | Pre-emergence action at 320 g/ha against ALOMY in % [8]: 100% | Pre-emergence action against AMARE in % [9]: 90% | Pre-emergence action against VERPE in % [10]: 100% | Pre-emergence action against SETVI in % [11]: 90%

COC(=O)[C@@H](C)Oc1nn(-c2ccccc2F)c(-c2ccc(F)nc2)c1Br [VII-004, Methyl (2R)-2-{[4-bromo-1-(2-fluorophenyl)-5-(6-fluoropyridin-3-yl)-1H-pyrazol-3-yl]oxy}propanoate]
pest or weed control at 320 g/ha ([1]; Fallopia convolvulus, 504 h): 90% | pest or weed control at 320 g/ha [12]: 90% | Post-emergence action at 320 g/ha against ECHCG in % [13]: 90% | pest or weed control at 320 g/ha ([3]; Lolium rigidum, 504 h): 80% | pest or weed control at 320 g/ha ([5]; Tripleurospermum inodorum, 504 h): 80% | pest or weed control at 320 g/ha [14]: 90% | pest or weed control at 320 g/ha ([7]; Viola tricolor, 504 h): 100% | pest or weed control at 320 g/ha [15]: 80% | Post-emergence action against SETVI in % [16]: 90% | pest or weed control at 320 g/ha [17]: 100% | pest or weed control at 320 g/ha ([8]; Alopecurus myosuroides, 504 h): 90% | Post-emergence action against ALOMY [18]: 90% | pest or weed control at 320 g/ha ([9]; Amaranthus retroflexus, 504 h): 90% | pest or weed control at 320 g/ha [19]: 90% | pest or weed control at 320 g/ha [20]: 90% | pest or weed control at 320 g/ha ([11]; Setaria viridis, 504 h): 100%
